Data from patent publication US9169254B2, “Spiroimidazolone derivative” (Chugai Seiyaku Kabushiki Kaisha, priority 2009, dated 2015).

Target: T1, human PTH1 receptor (Homo sapiens, UniProt Q03431)
T1 sequence (Q03431 27-593): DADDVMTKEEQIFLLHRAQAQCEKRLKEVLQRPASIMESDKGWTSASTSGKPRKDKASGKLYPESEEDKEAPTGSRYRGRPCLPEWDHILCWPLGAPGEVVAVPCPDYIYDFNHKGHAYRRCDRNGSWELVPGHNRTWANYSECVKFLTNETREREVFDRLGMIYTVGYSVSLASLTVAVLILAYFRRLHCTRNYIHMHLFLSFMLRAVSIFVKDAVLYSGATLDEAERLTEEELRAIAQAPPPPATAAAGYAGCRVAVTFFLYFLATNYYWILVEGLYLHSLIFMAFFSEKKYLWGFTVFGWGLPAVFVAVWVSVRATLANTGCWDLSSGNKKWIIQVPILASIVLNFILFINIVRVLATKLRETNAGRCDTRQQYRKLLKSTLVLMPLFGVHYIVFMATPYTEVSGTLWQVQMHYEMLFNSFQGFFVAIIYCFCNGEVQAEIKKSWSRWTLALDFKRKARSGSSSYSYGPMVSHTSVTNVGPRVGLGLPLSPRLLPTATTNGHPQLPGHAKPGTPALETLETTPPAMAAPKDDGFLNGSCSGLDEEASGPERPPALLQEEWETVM
Assay: In vitro cAMP signal activity in HKRK-B7 cells (LLC-PK1 cells overexpressing the human PTH1 receptor)
Format: cell-based
Conditions: HKRK-B7 cells; compound at 1×10^−3 M; cAMP produced as percentage of that produced by hPTH(1-34) at 100 nM

In order of falling “cAMP production activity (%)” value:
1. Cc1cc(N(C)C(N)=O)cc(C)c1/C=C/[S@TB4](=O)(=O)N1CCC2(CC1)N=C(c1cccc(CCCC(F)(F)F)c1)NC2=O [Compound 1089, 1-[3,5-dimethyl-4-((E)-2-{4-oxo-2-[3-(4,4,4-trifluoro-butyl)-phenyl]-1,3,8-triaza-spiro[4.5]dec-1-ene-8-sulfonyl}-vinyl)-phenyl]-1-methyl-urea]  99%
2. Cc1cc(C(=O)N2CCC(C)(O)CC2)cc(C)c1/C=C/S(=O)(=O)N1CCC2(CC1)N=C(c1ccc(F)c(OCCCC(F)(F)C(F)(F)F)c1)NC2=O [Compound 1092, 2-[4-Fluoro-3-(4,4,5,5,5-pentafluoro-pentyloxy)-phenyl]-8-{(E)-2-[4-(4-hydroxy-4-methyl-piperidine-1-carbonyl)-2,6-dimethyl-phenyl]-ethenesulfonyl}-1,3,8-triaza-spiro[4.5]dec-1-en-4-one]  89%
3. CC(=O)Nc1ccc(/C=C/S(=O)(=O)N2CCC3(CC2)N=C(C2CCC(C)CC2)NC3=O)c(OC(C)C)c1 (stereo not drawn) [Compound 506, N-(3-isopropoxy-4-{(E)-2-[2-(4-methyl-cyclohexyl)-4-oxo-1,3,8-triaza-spiro[4.5]dec-1-ene-8-sulfonyl]-vinyl}-phenyl)-acetamide]  83%
4. Cc1cc(C(=O)N2CCCC2)ccc1CCS(=O)(=O)N1CCC2(CC1)N=C(c1cccc(C(F)(F)F)c1)NC2=O [Compound 288, 8-{2-[2-methyl-4-(pyrrolidine-1-carbonyl)-phenyl]-ethanesulfonyl}-2-(3-trifluoromethyl-phenyl)-1,3,8-triaza-spiro[4.5]dec-1-en-4-one]  82%
5. Cc1cc(C(=O)N(C)C)ccc1CCS(=O)(=O)N1CCC2(CC1)N=C(c1cccc(OC(F)(F)F)c1)NC2=O [Compound 99, 3,N,N-trimethyl-4-{2-[4-oxo-2-(3-trifluoromethoxy-phenyl)-1,3,8-triaza-spiro[4.5]dec-1-ene-8-sulfonyl]-ethyl}-benzamide]  80%
6. O=C1NC(C2CCCCC2)=NC12CCN(S(=O)(=O)CCc1cccc3[nH]ccc13)CC2 [Compound 303, 2-Cyclohexyl-8-[2-(1H-indol-4-yl)-ethanesulfonyl]-1,3,8-triaza-spiro[4.5]dec-1-en-4-one]  76%
7. Cc1cc(C(=O)N2CCC(C)(O)CC2)cc(C)c1/C=C/S(=O)(=O)N1CCC2(CC1)N=C(c1ccc(OCC(F)(F)F)c(C(F)(F)F)c1)NC2=O [Compound 1200, 8-{(E)-2-[4-(4-hydroxy-4-methyl-piperidine-1-carbonyl)-2,6-dimethyl-phenyl]-ethenesulfonyl}-2-[4-(2,2,2-trifluoro-ethoxy)-3-trifluoromethyl-phenyl]-1,3,8-triaza-spiro[4.5]dec-1-en-4-one]  73%
8. CC(=O)N(C)Cc1cc(C)c(/C=C/S(=O)(=O)N2CCC3(CC2)N=C(C2CCC(CCC(F)(F)F)CC2)NC3=O)c(C)c1 (stereo not drawn) [Compound 559, N-[3,5-dimethyl-4-((E)-2-{4-oxo-2-[4-(3,3,3-trifluoro-propyl)-cyclohexyl]-1,3,8-triaza-spiro[4.5]dec-1-ene-8-sulfonyl}-vinyl)-benzyl]-N-methyl-acetamide]  72%
9. CCCCC1CCC(C2=NC3(CCN(S(=O)(=O)CCc4ccc(N5C(=O)CNC5=O)cc4C)CC3)C(=O)N2)CC1 (stereo not drawn) [Compound 880, 3-(4-{2-[2-(4-Butyl-cyclohexyl)-4-oxo-1,3,8-triaza-spiro[4.5]dec-1-ene-8-sulfonyl]-ethyl}-3-methyl-phenyl)-imidazolidine-2,4-dione]  68%
10. O=C1NC(c2cccc(OC(F)(F)F)c2)=NC12CCN(S(=O)(=O)CCc1cccc3cnccc13)CC2 [Compound 653, 8-(2-Isoquinolin-5-yl-ethanesulfonyl)-2-(3-trifluoromethoxy-phenyl)-1,3,8-triaza-spiro[4.5]dec-1-en-4-one]  67%
11. CC(=O)Nc1ccc(CCS(=O)(=O)N2CCC3(CC2)N=C(C2CCC(F)(CCCF)CC2)NC3=O)c(C)c1 (stereo not drawn) [Compound 1073, N-[4-(2-{2-[4-fluoro-4-(3-fluoro-propyl)-cyclohexyl]-4-oxo-1,3,8-triaza-spiro[4.5]dec-1-ene-8-sulfonyl}-ethyl)-3-methyl-phenyl]-acetamide]  66%
12. CCCCC1CCC(C2=NC3(CCN(S(=O)(=O)/C=C/c4c(C)cc(N5C(=O)CNC5=O)cc4C)CC3)C(=O)N2)CC1 (stereo not drawn) [Compound 631, 3-(4-{(E)-2-[2-(4-Butyl-cyclohexyl)-4-oxo-1,3,8-triaza-spiro[4.5]dec-1-ene-8-sulfonyl]-vinyl}-3,5-dimethyl-phenyl)-imidazolidine-2,4-dione]  65%
13. Cc1cc(C(=O)N(C)C)ccc1CCS(=O)(=O)N1CCC2(CC1)N=C(c1cccc(F)c1)NC2=O [Compound 109, 4-{2-[2-(3-fluoro-phenyl)-4-oxo-1,3,8-triaza-spiro[4.5]dec-1-ene-8-sulfonyl]-ethyl}-3,N,N-trimethyl-benzamide]  62%
14. Cc1cc(S(=O)(=O)NC[C@@H](O)CO)ccc1/C=C/S(=O)(=O)N1CCC2(CC1)N=C(c1cccc(OC(F)(F)F)c1)NC2=O [Compound 599, N—((R)-2,3-dihydroxy-propyl)-3-methyl-4-{(E)-2-[4-oxo-2-(3-trifluoromethoxy-phenyl)-1,3,8-triaza-spiro[4.5]dec-1-ene-8-sulfonyl]-vinyl}-benzenesulfonamide]  59%
15. Cc1cc(C(=O)N(C)CC(=O)O)cc(C)c1/C=C/S(=O)(=O)N1CCC2(CC1)N=C(c1cccc(C(F)(F)F)c1)NC2=O [Compound 452, [(3,5-Dimethyl-4-{(E)-2-[4-oxo-2-(3-trifluoromethyl-phenyl)-1,3,8-triaza-spiro[4.5]dec-1-ene-8-sulfonyl]-vinyl}-benzoyl)-methyl-amino]-acetic acid]  58%
16. Cc1cc(S(=O)(=O)NCc2cccnc2)ccc1CCS(=O)(=O)N1CCC2(CC1)N=C(c1cccc(C(F)(F)F)c1)NC2=O [Compound 852, 3-methyl-4-{2-[4-oxo-2-(3-trifluoromethyl-phenyl)-1,3,8-triaza-spiro[4.5]dec-1-ene-8-sulfonyl]-ethyl}-N-pyridin-3-ylmethyl-benzenesulfonamide]  58%
17. Cc1cc2ccc1CCS(=O)(=O)N1CCC3(CC1)N=C(NC3=O)c1cc(cc(C(F)(F)F)c1)OCC/C=C/CCCCCN(C)C2=O [Compound 1413]  57%
18. O=C1NC(c2cccc(C(F)(F)F)c2)=NC12CCN(S(=O)(=O)CCc1cccc3ccccc13)CC2 [Compound 35, 8-(2-Naphthalen-1-yl-ethanesulfonyl)-2-(3-trifluoromethyl-phenyl)-1,3,8-triaza-spiro[4.5]dec-1-en-4-one]  56%
19. O=C1NC(C2CCCCC2)=NC12CCN(S(=O)(=O)/C=C/c1cccc3c1ccn3CCN1CCOCC1)CC2 [Compound 192, 2-cyclohexyl-8-{(E)-2-[1-(2-morpholin-4-yl-ethyl)-1H-indol-4-yl]-ethenesulfonyl}-1,3,8-triaza-spiro[4.5]dec-1-en-4-one]  52%
20. Cc1cc(N2COCC2=O)ccc1CCS(=O)(=O)N1CCC2(CC1)N=C(C1CCC(C)CC1)NC2=O (stereo not drawn) [Compound 866, 2-(4-methyl-cyclohexyl)-8-{2-[2-methyl-4-(4-oxo-oxazolidin-3-yl)-phenyl]-ethanesulfonyl}-1,3,8-triaza-spiro[4.5]dec-1-en-4-one]  47%
21. Cc1cc(CNC(=O)OC(C)(C)C)ccc1CCS(=O)(=O)N1CCC2(CC1)N=C(C1CCC(F)(F)CC1)NC2=O [Compound 163, (4-{2-[2-(4,4-difluoro-cyclohexyl)-4-oxo-1,3,8-triaza-spiro[4.5]dec-1-ene-8-sulfonyl]-ethyl}-3-methyl-benzyl)-carbamic acid tert-butyl ester]  41%
22. Cc1cc2ccc1CCS(=O)(=O)N1CCC3(CC1)N=C(NC3=O)c1cc(cc(C(F)(F)F)c1)OCCOCCOCCN(C)C2=O [Compound 1438]  40%
23. O=C(CO)NCc1ccc(/C=C/S(=O)(=O)N2CCC3(CC2)N=C(C2CCCCC2)NC3=O)cc1 [Compound 489, N-{4-[(E)-2-(2-cyclohexyl-4-oxo-1,3,8-triaza-spiro[4.5]dec-1-ene-8-sulfonyl)-vinyl]-benzyl}-2-hydroxy-acetamide]  37%
24. Cc1cc(N2CCC2=O)ccc1CCS(=O)(=O)N1CCC2(CC1)N=C(C1CCCCC1)NC2=O [Compound 861, 2-cyclohexyl-8-{2-[2-methyl-4-(2-oxo-azetidin-1-yl)-phenyl]-ethanesulfonyl}-1,3,8-triaza-spiro[4.5]dec-1-en-4-one]  36%
25. O=C(N1CCOCC1)n1ccc2c(/C=C/S(=O)(=O)N3CCC4(CC3)N=C(C3CCCCC3)NC4=O)cccc21 [Compound 477, 2-cyclohexyl-8-{(E)-2-[1-(morpholine-4-carbonyl)-1H-indol-4-yl]-ethenesulfonyl}-1,3,8-triaza-spiro[4.5]dec-1-en-4-one]  31%
26. O=C1NC(C2CCCCC2)=NC12CCN(S(=O)(=O)CCc1nccs1)CC2 [Compound 345, 2-Cyclohexyl-8-(2-thiazol-2-yl-ethanesulfonyl)-1,3,8-triaza-spiro[4.5]dec-1-en-4-one]  21%
27. Cc1cc2ccc1CCS(=O)(=O)N1CCC3(CC1)N=C(NC3=O)c1cc(cc(C(F)(F)F)c1)OCC/C=C/CNC(=O)CN(C)C2=O [Compound 1422]  15%
